Measurements from BindingDB's records for doi:10.1111/cbdd.12728 (Jawaharlal Nehru Centre For Advanced Scientific Research, 2016).
Several values for one entry are separate records, joined by “and”; a condition that tells them apart may be missing. Equal values may be shown once.

Target: Aurora kinase B (Homo sapiens, UniProt Q96GD4)
Test: Isothermal Titration Calorimetry (ITC)
Details: pH 8; 25 °C
Procedure: Calorimetric titrations were performed in a Microcal iTC 200 microcalorimeter. Freshly purified 5 µM protein (Aurora A/B kinases) was titrated against 100 µM ligand (felodipine/ PTK66) in each case at 25 °C. Proteins and the ligandswere diluted in the final dialysate (20 mM Tris-HCl, pH 8.0, 0.2 mM EDTA and 100 mM KCl) against which the proteins were extensively dialysed to avoid any artefact due to the minor differences in buffer composition. DMSO content was kept exactly same in the cell (not exceeding 0.2% v/v) and syringe to rule out any interference due to DMSO content mismatch. All samples were thoroughly degassed prior to titration and were prepared with the same batch of dialysate to avoid any artefacts from the minor differences in buffer composition. Dilutions of 100 µM felodipine/PTK66 in dialysate containing equal percentage of DMSOserved as controls. The stirring speed was 300 rpm.

Aurora kinase B, sequence (Q96GD4 whole entry): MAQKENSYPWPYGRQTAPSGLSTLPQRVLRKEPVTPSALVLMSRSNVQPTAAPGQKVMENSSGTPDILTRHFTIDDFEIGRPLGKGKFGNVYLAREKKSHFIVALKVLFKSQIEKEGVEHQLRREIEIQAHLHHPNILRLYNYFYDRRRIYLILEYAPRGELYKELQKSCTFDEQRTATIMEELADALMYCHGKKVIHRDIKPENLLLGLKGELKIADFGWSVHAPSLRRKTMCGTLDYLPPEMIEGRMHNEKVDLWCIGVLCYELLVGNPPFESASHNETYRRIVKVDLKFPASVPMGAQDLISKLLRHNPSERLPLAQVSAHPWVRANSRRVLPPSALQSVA

Kd | Structure (SMILES)
1140 nM | CCOC(=O)C1=C(C)NC(C)=C(C(=O)OC)[C@H]1c1cccc(Cl)c1Cl [5-O-ethyl 3-O-methyl 4-(2,3-dichlorophenyl)-2,6-dimethyl-1,4-dihydropyridine-3,5-dicarboxylate]
1750 nM and 500 nM | Cc1cc(O)cc(O)c1/N=N/c1nccs1 [5-methyl-4-(2-thiazolylazo)resorcinol]
